Measurements from US20210284647A1, “N-(3-(IMIDAZO[1,2-B]PYRIDAZIN-3-YLETHYNYL)-4-METHYLPHENYL)-5-PHENYL-4,5-DIHYDRO-1H-PYRAZOLE-1-CARBOXAMIDE DERIVATIVE, AND PHARMACEUTICAL COMPOSITION CONTAINING SAME AS ACTIVE INGREDIENT FOR TREATING KINASE-RELATED DISEASES” (VORONOIBIO INC., priority 2018, published 2021).
pEC50, pIC50: −log10 of the molar value.

What was measured:
human GST-RIPK1 = target: T1, human GST-RIPK1 (Homo sapiens, UniProt Q13546); assay: RIPK1 inhibitory activity (ADP-Glo kinase assay); format: biochemical; conditions: human GST-RIPK1 10 ng, ATP 50 uM, 25° C. for 4 hours, read-out: Enzyme IC50
T1 construct: GST; purchased signalchem
T1 sequence (Q13546 1-375 limits assumed): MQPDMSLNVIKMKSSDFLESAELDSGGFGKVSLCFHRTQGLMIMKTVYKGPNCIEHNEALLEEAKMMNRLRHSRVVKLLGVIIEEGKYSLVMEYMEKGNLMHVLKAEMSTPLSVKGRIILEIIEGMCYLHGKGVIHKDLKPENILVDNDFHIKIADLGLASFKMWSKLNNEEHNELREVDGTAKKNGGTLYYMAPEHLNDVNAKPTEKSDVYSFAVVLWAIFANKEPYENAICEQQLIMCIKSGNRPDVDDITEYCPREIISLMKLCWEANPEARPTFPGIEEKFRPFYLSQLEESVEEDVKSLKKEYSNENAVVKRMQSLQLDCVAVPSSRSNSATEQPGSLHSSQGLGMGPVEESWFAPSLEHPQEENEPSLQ
How it was run: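 Purified human GST-RIPK1 (10 ng) was reacted with 50 uM ATP and substrate in Tris-HCl pH 7.4, MgCl2, BSA, DTT buffer for 4 h at 25 °C. ADP formed was read by ADP-Glo luminescence. IC50 is relative to solvent control, from three data sets.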

[1] = system: human Jurkat T cells deficient in FADD; assay: Cell protection effect under apoptosis-inducing condition (TNF-α); format: cell-based; conditions: 40 ng of TNF-α, 50 hours, CellTiter-Glo, read-out: I2.I Cell EC50
How it was run: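 FADD-deficient Jurkat cells (10,000/well) were cultured for 24 h, then exposed to TNF-α (40 ng) plus compound in a 3-fold series from 1 µM top (0.05% DMSO) for 50 h. Viability was read by CellTiter-Glo luminescence. EC50 is the concentration giving 50% inhibition of apoptosis relative to solvent control.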

Row | Compound | pIC50 (human GST-RIPK1) | pEC50 [1]
1 | Cc1cc(Nc2cccn3c(C#Cc4cccc(NC(=O)N5N=CCC5c5ccccc5)c4)cnc23)n[nH]1 (stereo not drawn) [Example 66, N-(3-((8-((5-methyl-1H-pyrazol-3-yl)amino)imidazo[1,2-a]pyridin-3-yl)ethynyl)phenyl)-5-phenyl-4,5-dihydro-1H-pyrazole-1-carboxamide 2,2,2-trifluoroacetate] | 7.51 | 9.66
2 | Cn1cc(Nc2cccn3c(C#Cc4cccc(NC(=O)N5N=CCC5c5ccccc5)c4)cnc23)cn1 (stereo not drawn) [Example 67, N-(3-((8-((1-methyl-1H-pyrazol-4-yl)amino)imidazo[1,2-a]pyridin-3-yl)ethynyl)phenyl)-5-phenyl-4,5-dihydro-1H-pyrazole-1-carboxamide 2,2,2-trifluoroacetate] | 7.72 | 10.10
3 | Cn1ccc(Nc2cccn3c(C#Cc4cccc(NC(=O)N5N=CCC5c5ccccc5)c4)cnc23)n1 (stereo not drawn) [Example 68, N-(3-((8-((1-methyl-1H-pyrazol-3-yl)amino)imidazo[1,2-a]pyridin-3-yl)ethynyl)phenyl)-5-phenyl-4,5-dihydro-1H-pyrazole-1-carboxamide 2,2,2-trifluoroacetate] | 7.41 | 9.92
